Measured values taken from US10711000B2 (Fronthera U.S. Pharmaceuticals LLC, priority 2018, dated 2020).
pIC50: −log10 of the molar value. Like-named read-outs stand apart in the source and are kept apart here.

Molecular target: T1, Autotaxin (Homo sapiens, UniProt Q13822)
T1 construct: from tissue; host or cells: pooled human plasma
Experiment: LPA formation in pooled human plasma (ex vivo autotaxin inhibition)
Type: biochemical
Settings: 2 hours incubation
Summary of the method: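 Pooled human plasma incubated 2 h with various compound concentrations; LPA 18:2 and 20:4 quantified by LC/MS/MS (negative-ion MRM, LPA17:0 internal standard) after butanol extraction. Inhibition of LPA formation relative to untreated plasma; IC50 by non-linear regression.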

[1] = LPA 18:2 by LC/MS/MS, read-out: LPA formation (18:2) (IC50)
[2] = LPA 20:4 by LC/MS/MS, read-out: LPA formation (20:4) (IC50)

For `Cc1cc(N2CC3(CN(C(=O)C4CCN(C)C4)C3)C2)cc2c(N(C)c3nc(-c4ccc(F)cc4)c(C#N)s3)c(C3CC3)nn12` (centres unmarked) [Example 85, 2-((2-cyclopropyl-7-methyl-5-(6-(1-methylpyrrolidine-3-carbonyl)-2,6-diazaspiro[3.3]heptan-2-yl)pyrazolo[1,5-a]pyridin-3-yl)(methyl)amino)-4-(4-fluorophenyl)thiazole-5-carbonitrile], the pIC50 [1] was 6.30 to 7.00 and the pIC50 [2] was 6.30 to 7.00.
In the case of `CCc1nn2c(C)cc(N3CC4(CN(C(=O)[C@H]5COC[C@@H]5O)C4)C3)cc2c1N(C)c1nc(-c2ccc(F)cc2)c(C#N)s1` (stereo in doubt) [Example 59, 2-((2-ethyl-5-(6-(4-hydroxytetrahydrofuran-3-carbonyl)-2,6-diazaspiro[3.3]heptan-2-yl)-7-methylpyrazolo[1,5-a]pyridin-3-yl)(methyl)amino)-4-(4-fluorophenyl)thiazole-5-carbonitrile], the pIC50 [1] was 6.30 to 7.00 and the pIC50 [2] was 6.30 to 7.00.
`CCc1nn2c(C)cc(N3CCC4(CN(CC(O)CO)C4)C3)cc2c1N(C)c1nc(-c2ccc(F)cc2)c(C#N)s1` (centres unmarked) [Example 55, 2-((5-(2-(2,3-dihydroxypropyl)-2,6-diazaspiro[3.4]octan-6-yl)-2-ethyl-7-methylpyrazolo[1,5-a]pyridin-3-yl)(methyl)amino)-4-(4-fluorophenyl)thiazole-5-carbonitrile] gave a pIC50 [1] of 6.30 to 7.00 and a pIC50 [2] of 6.30 to 7.00.
`CCc1nn2c(C)cc(N3CC4(CN(C(=O)[C@H]5CCOC5)C4)C3)cc2c1N(C)c1nc(-c2ccc(F)cc2)c(C#N)s1` [Example 39, (S)-2-((2-ethyl-7-methyl-5-(6-(tetrahydrofuran-3-carbonyl)-2,6-diazaspiro[3.3]heptan-2-yl)pyrazolo[1,5-a]pyridin-3-yl)(methyl)amino)-4-(4-fluorophenyl)thiazole-5-carbonitrile] was tested, and the pIC50 [1] was ≥ 7.00 and the pIC50 [2] was ≥ 7.00.
In the case of `CCc1nn2cc(F)c(N3CC4(CN(C(=O)N5CCOCC5)C4)C3)cc2c1N(C)c1nc(-c2ccc(F)cc2)c(C#N)s1` [Example 108, 2-((2-ethyl-6-fluoro-5-(6-(morpholine-4-carbonyl)-2,6-diazaspiro[3.3]heptan-2-yl)pyrazolo[1,5-a]pyridin-3-yl)(methyl)amino)-4-(4-fluorophenyl)thiazole-5-carbonitrile], the pIC50 [1] was ≥ 7.00 and the pIC50 [2] was ≥ 7.00.
In the case of `Cc1cc(N2CC(C#N)C2)cc2c(N(C)c3nc(-c4ccc(F)cc4)c(C#N)s3)c(C3CC3)nn12` [Example 88, 2-[[5-(3-cyanoazetidin-1-yl)-2-cyclopropyl-7-methyl-pyrazolo[1,5-a]pyridin-3-yl]-methyl-amino]-4-(4-fluorophenyl)thiazole-5-carbonitrile], the pIC50 [1] was < 6.00 and the pIC50 [2] was < 6.00.
`CCc1nn2c(C)cc(N3CCC4(CN(C(=O)[C@H]5CCCO5)C4)C3)cc2c1N(C)c1nc(-c2ccc(F)cc2)c(C#N)s1` [Example 49, (R)-2-((2-ethyl-7-methyl-5-(2-(tetrahydrofuran-2-carbonyl)-2,6-diazaspiro[3.4]octan-6-yl)pyrazolo[1,5-a]pyridin-3-yl)(methyl)amino)-4-(4-fluorophenyl)thiazole-5-carbonitrile] was tested, and the pIC50 [1] was ≥ 7.00 and the pIC50 [2] was ≥ 7.00.
With `CCc1nn2c(C)cc(N3CC4(CCN(C(=O)[C@H]5CCOC5)C4)C3)cc2c1N(C)c1nc(-c2ccc(F)cc2)c(C#N)s1` [Example 45, (S)-2-((2-ethyl-7-methyl-5-(6-(tetrahydrofuran-3-carbonyl)-2,6-diazaspiro[3.4]octan-2-yl)pyrazolo[1,5-a]pyridin-3-yl)(methyl)amino)-4-(4-fluorophenyl)thiazole-5-carbonitrile] the pIC50 [1] was ≥ 7.00 and the pIC50 [2] was ≥ 7.00.
With `CCc1nn2c(C)cc(N3CC4(CN(C(=O)[C@@H]5CCOC5)C4)C3)cc2c1N(C)c1nc(-c2ccc(F)cc2)c(C#N)s1` [Example 40, (R)-2-((2-ethyl-7-methyl-5-(6-(tetrahydrofuran-3-carbonyl)-2,6-diazaspiro[3.3]heptan-2-yl)pyrazolo[1,5-a]pyridin-3-yl)(methyl)amino)-4-(4-fluorophenyl)thiazole-5-carbonitrile] the pIC50 [1] was ≥ 7.00 and the pIC50 [2] was ≥ 7.00.
With `CN(c1nc(-c2ccc(F)cc2)c(C#N)s1)c1c(C2CC2)nn2ccc(N3CCN(CC(=O)N4CC(O)C4)CC3)cc12` [Example 21, 2-((2-cyclopropyl-5-(4-(2-(3-hydroxyazetidin-1-yl)-2-oxoethyl)piperazin-1-yl)pyrazolo[1,5-a]pyridin-3-yl)(methyl)amino)-4-(4-fluorophenyl)thiazole-5-carbonitrile] the pIC50 [1] was ≥ 7.00 and the pIC50 [2] was ≥ 7.00.
In the case of `CCc1nn2ccc(N3CCN(CC(=O)N4CC[C@@H](O)C4)CC3)cc2c1N(C)c1nc(-c2ccc(F)cc2)c(C#N)s1` [Example 3, (R)-2-((2-ethyl-5-(4-(2-(3-hydroxypyrrolidin-1-yl)-2-oxoethyl)piperazin-1-yl)pyrazolo[1,5-a]pyridin-3-yl)(methyl)amino)-4-(4-fluorophenyl)thiazole-5-carbonitrile], the pIC50 [1] was ≥ 7.00 and the pIC50 [2] was ≥ 7.00.
In the case of `CCc1nn2ccc(N3CC4(CN(C(=O)N5CCN(C)CC5)C4)C3)cc2c1N(C)c1nc(-c2ccc(F)cc2)c(C#N)s1` [Example 14, 2-((2-ethyl-5-(6-(4-methylpiperazine-1-carbonyl)-2,6-diazaspiro[3.3]heptan-2-yl)pyrazolo[1,5-a]pyridin-3-yl)(methyl)amino)-4-(4-fluorophenyl)thiazole-5-carbonitrile], the pIC50 [1] was ≥ 7.00 and the pIC50 [2] was ≥ 7.00.
In the case of `Cc1cc(N2CC3(CN(C(=O)C(C)(C)O)C3)C2)cc2c(N(C)c3nc(-c4ccc(F)cc4)c(C#N)s3)c(C3CC3)nn12` [Example 77, 2-((2-cyclopropyl-5-(6-(2-hydroxy-2-methylpropanoyl)-2,6-diazaspiro[3.3]heptan-2-yl)-7-methylpyrazolo[1,5-a]pyridin-3-yl)(methyl)amino)-4-(4-fluorophenyl)thiazole-5-carbonitrile], the pIC50 [1] was ≥ 7.00 and the pIC50 [2] was ≥ 7.00.
`Cc1cc(N2CCN(CC(=O)O)CC2)cc2c(N(C)c3nc(-c4ccc(F)cc4)c(C#N)s3)c(C3CC3)nn12` [Example 80, 2-(4-(3-((5-cyano-4-(4-fluorophenyl)thiazol-2-yl)(methyl)amino)-2-cyclopropyl-7-methylpyrazolo[1,5-a]pyridin-5-yl)piperazin-1-yl)acetic acid] was tested, and the pIC50 [1] was < 6.00 and the pIC50 [2] was < 6.00.
`CCc1nn2c(C)cc(N3CC4(CN(C(=O)C5(O)CC5)C4)C3)cc2c1N(C)c1nc(-c2ccc(F)cc2)c(C#N)s1` [Example 61, 2-((2-ethyl-5-(6-(1-hydroxycyclopropane-1-carbonyl)-2,6-diazaspiro[3.3]heptan-2-yl)-7-methylpyrazolo[1,5-a]pyridin-3-yl)(methyl)amino)-4-(4-fluorophenyl)thiazole-5-carbonitrile] gave a pIC50 [1] of 6.30 to 7.00 and a pIC50 [2] of 6.30 to 7.00.
In the case of `CN(c1nc(-c2ccc(F)cc2)c(C#N)s1)c1c(C2CC2)nn2ccc(N3CC4(CN(C(=O)[C@H]5CCOC5)C4)C3)cc12` [Example 22, (S)-2-((2-cyclopropyl-5-(6-(tetrahydrofuran-3-carbonyl)-2,6-diazaspiro[3.3]heptan-2-yl)pyrazolo[1,5-a]pyridin-3-yl)(methyl)amino)-4-(4-fluorophenyl)thiazole-5-carbonitrile], the pIC50 [1] was ≥ 7.00 and the pIC50 [2] was ≥ 7.00.
`CCc1nn2c(C)cc(N3CCN(CC(=O)N4CC[C@@H](O)C4)CC3)cc2c1N(C)c1nc(-c2ccc(F)cc2)c(C#N)s1` [Example 25, (R)-2-((2-ethyl-5-(4-(2-(3-hydroxypyrrolidin-1-yl)-2-oxoethyl)piperazin-1-yl)-7-methylpyrazolo[1,5-a]pyridin-3-yl)(methyl)pamino)-4-(4-fluorophenyl)thiazole-5-carbonitrile] was tested, and the pIC50 [1] was ≥ 7.00 and the pIC50 [2] was ≥ 7.00.
`CCc1nn2c(C)cc(N3CCC4(CN(C(=O)C5CCOCC5)C4)C3)cc2c1N(C)c1nc(-c2ccc(F)cc2)c(C#N)s1` [Example 43, 2-((2-ethyl-7-methyl-5-(2-(tetrahydro-2H-pyran-4-carbonyl)-2,6-diazaspiro[3.4]octan-6-yl)pyrazolo[1,5-a]pyridin-3-yl)(methyl)amino)-4-(4-fluorophenyl)thiazole-5-carbonitrile] was tested, and the pIC50 [1] was ≥ 7.00 and the pIC50 [2] was ≥ 7.00.
`Cc1cc(N2CC(O)C2)cc2c(N(C)c3nc(-c4ccc(F)cc4)c(C#N)s3)c(C3CC3)nn12` [Example 87, 2-[[2-cyclopropyl-5-(3-hydroxyazetidin-1-yl)-7-methyl-pyrazolo[1,5-a]pyridin-3-yl]-methyl-amino]-4-(4-fluorophenyl)thiazole-5-carbonitrile] was tested, and the pIC50 [1] was < 6.00 and the pIC50 [2] was < 6.00.
With `CCc1nn2ccc(N3CCC4(CCN(C(=O)N5CC(O)C5)C4)C3)cc2c1N(C)c1nc(-c2ccc(F)cc2)c(C#N)s1` (centres unmarked) [Example 20, 2-((2-ethyl-5-(7-(3-hydroxyazetidine-1-carbonyl)-2,7-diazaspiro[4.4]nonan-2-yl)pyrazolo[1,5-a]pyridin-3-yl)(methyl)amino)-4-(4-fluorophenyl)thiazole-5-carbonitrile] the pIC50 [1] was ≥ 7.00 and the pIC50 [2] was ≥ 7.00.
`CCc1nn2c(C)cc(N3CCN(CC(=O)N4CC[C@H](O)C4)CC3)cc2c1N(C)c1nc(-c2ccc(F)cc2)c(C#N)s1` [Example 26, (S)-2-((2-ethyl-5-(4-(2-(3-hydroxypyrrolidin-1-yl)-2-oxoethyl)piperazin-1-yl)-7-methylpyrazolo[1,5-a]pyridin-3-yl)(methyl)amino)-4-(4-fluorophenyl)thiazole-5-carbonitrile] gave a pIC50 [1] of 6.30 to 7.00 and a pIC50 [2] of 6.30 to 7.00.
In the case of `CCc1nn2c(C)cc(-c3cnn(C[C@@H](O)CO)c3)cc2c1N(C)c1nc(-c2ccc(F)cc2)c(C#N)s1` [Example 72, (R)-2-((5-(1-(2,3-dihydroxypropyl)-1H-pyrazol-4-yl)-2-ethyl-7-methylpyrazolo[1,5-a]pyridin-3-yl)(methyl)amino)-4-(4-fluorophenyl)thiazole-5-carbonitrile], the pIC50 [1] was < 6.00 and the pIC50 [2] was < 6.00.
